Measured values as given in patent US11377469B2, “CD73 inhibitors” (ORIC Pharmaceuticals, Inc., priority 2017, dated 2022).

molecular target: CD73 (Homo sapiens (Human), UniProt P21589); test: Biochemical Assay (CD73 inhibition, AMP hydrolysis, Malachite Green readout); conditions: CD73 0.3208 nM, AMP 15 μM, Tris-HCl pH 7.4, Malachite Green absorbance
Procedure: Example A1: Biochemical Assay
Assay Reaction Conditions
• Assay Volume: 70 μl • Reaction Volume: 50 μl • CD73: 0.3208 nM • AMP: 15 μM • Assay Buffer: 2 5 mM Tris-HCL, pH 7.4, 0.01% Brij-35, 0.01% BSA, 5 mM MgCl2 Assay Procedure:
Made dose titration of testing compounds in assay buffer, 10 points ½ log titrations in duplicates starting at 100 μM.
Added 25 μl of CD73 to each well for a final concentration of 320 pM.
Incubated at RT for 15 min.
Added 25 μl of AMP to each well for a final concentration of 15 μM.
Incubated at RT for 10 min.
Added 10 μl of Malachite Green Reagent A, incubate at RT for 10 min.
Added 10 μl of Malachite Green Reagent B, incubate at RT for 45 min. […]
The ability of the compounds disclosed herein to inhibit CD73 activity was quantified and the respective IC50 values were determined. Table 1 provides the biochemical IC50 values of compounds disclosed herein.

Chain of CD73 (P21589 27-574): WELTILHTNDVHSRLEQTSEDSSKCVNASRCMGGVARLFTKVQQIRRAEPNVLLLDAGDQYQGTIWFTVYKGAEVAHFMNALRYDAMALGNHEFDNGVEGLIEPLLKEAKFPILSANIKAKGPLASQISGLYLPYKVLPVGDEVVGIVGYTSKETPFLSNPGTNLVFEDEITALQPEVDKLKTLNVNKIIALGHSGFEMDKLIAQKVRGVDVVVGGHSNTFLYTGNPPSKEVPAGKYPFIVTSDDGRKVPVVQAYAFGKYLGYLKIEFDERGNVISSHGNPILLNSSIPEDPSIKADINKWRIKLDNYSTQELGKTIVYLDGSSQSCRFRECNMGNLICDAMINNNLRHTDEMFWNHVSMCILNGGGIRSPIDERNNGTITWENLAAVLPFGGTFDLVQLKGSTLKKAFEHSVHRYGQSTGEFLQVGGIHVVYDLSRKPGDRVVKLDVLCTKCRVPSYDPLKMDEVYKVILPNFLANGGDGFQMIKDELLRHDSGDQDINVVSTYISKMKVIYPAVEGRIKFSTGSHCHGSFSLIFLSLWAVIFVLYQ

Compound | IC50
O=P(O)(O)COC[C@H]1O[C@@H](n2ncc3c(NCC4CCCC4)nc(Cl)nc32)[C@H](O)[C@@H]1O [Example 124, ((((2R,3S,4R,5R)-5-(6-chloro-4-((cyclopentylmethyl)amino)-1H-pyrazolo[3,4-d]pyrimidin-1-yl)-3,4-dihydroxytetrahydrofuran-2-yl)methoxy)methyl)phosphonic acid] | ≤ 500 nM
O=P(O)(O)COC[C@H]1O[C@@H](n2ncc3c(NC[C@@H]4CCOC4)nc(Cl)nc32)[C@H](O)[C@@H]1O [Example 71, ((((2R,3S,4R,5R)-5-(6-chloro-4-((((S)-tetrahydrofuran-3-yl)methyl)amino)-1H-pyrazolo[3,4-d]pyrimidin-1-yl)-3,4-dihydroxytetrahydrofuran-2-yl)methoxy)methyl)phosphonic acid] | ≤ 500 nM
N#CC1(CNc2nc(Cl)nc3c2cnn3[C@@H]2O[C@H](COCP(=O)(O)O)[C@@H](O)[C@H]2O)CC1 [Example 138, ((((2R,3S,4R,5R)-5-(6-chloro-4-(((1-cyanocyclopropyl)methyl)amino)-1H-pyrazolo[3,4-d]pyrimidin-1-yl)-3,4-dihydroxytetrahydrofuran-2-yl)methoxy)methyl)phosphonic acid] | ≤ 500 nM
CN(C[C@H]1O[C@@H](n2nnc3c(NC4CCCC4)nc(Cl)nc32)[C@H](O)[C@@H]1O)C(=O)CP(=O)(O)O [Example 115, (2-((((2R,3S,4R,5R)-5-(5-chloro-7-(cyclopentylamino)-3H-[1,2,3]triazolo[4,5-d]pyrimidin-3-yl)-3,4-dihydroxytetrahydrofuran-2-yl)methyl)(methyl)amino)-2-oxoethyl)phosphonic acid] | 500 to 1000 nM
CC(C)Nc1nc(Cl)nc2c1cnn2[C@@H]1O[C@H](COCP(=O)(O)O)[C@@H](O)[C@H]1O [Example 74, ((((2R,3S,4R,5R)-5-(6-chloro-4-(isopropylamino)-1H-pyrazolo[3,4-d]pyrimidin-1-yl)-3,4-dihydroxytetrahydrofuran-2-yl)methoxy)methyl)phosphonic acid] | ≤ 500 nM
COCCN(c1nc(Cl)nc2c1cnn2[C@@H]1O[C@H](CS(=O)(=O)CP(=O)(O)O)[C@@H](O)[C@H]1O)C1CCCC1 [Example 133] | ≤ 500 nM
O=P(O)(O)COC[C@H]1O[C@@H](n2ncc3c(NCC4CC(F)(F)C4)nc(Cl)nc32)[C@H](O)[C@@H]1O [Example 86] | ≤ 500 nM
COP(=O)(CP(=O)(O)O)OC[C@H]1O[C@@H](n2nnc3c(NC4CCCC4)nc(Cl)nc32)[C@H](O)[C@@H]1O (stereo partly drawn) [Example 106, (((((2R,3S,4R,5R)-5-(5-chloro-7-(cyclopentylamino)-3H-[1,2,3]triazolo[4,5-d]pyrimidin-3-yl)-3,4-dihydroxytetrahydrofuran-2-yl)methoxy)(methoxy)phosphoryl)methyl) phosphonic acid] | ≤ 500 nM
CC(C)COc1nc(NCc2cccc(Cl)c2)c2cnn([C@@H]3O[C@H](COCP(=O)(O)O)[C@@H](O)[C@H]3O)c2n1 [Example 54, ((((2R,3S,4R,5R)-5-(4-((3-chlorobenzyl)amino)-6-isobutoxy-1H-pyrazolo[3,4-d]pyrimidin-1-yl)-3,4-dihydroxytetrahydrofuran-2-yl)methoxy)methyl)phosphonic acid] | > 1000 nM
CCC(CC)Nc1nc(Cl)nc2c1cnn2[C@@H]1O[C@H](COCP(=O)(O)O)[C@@H](O)[C@H]1O [Example 78, ((((2R,3S,4R,5R)-5-(6-chloro-4-(pentan-3-ylamino)-1H-pyrazolo[3,4-d]pyrimidin-1-yl)-3,4-dihydroxytetrahydrofuran-2-yl)methoxy)methyl)phosphonic acid] | ≤ 500 nM
CN(c1nc(Cl)nc2c1nnn2[C@@H]1O[C@H](COC(=O)CP(=O)(O)O)[C@@H](O)[C@H]1O)[C@H]1CCc2ccccc21 [Example 11, (2-(((2R,3S,4R,5R)-5-(5-chloro-7-(((S)-2,3-dihydro-1H-inden-1-yl)(methyl)amino)-3H-[1,2,3]triazolo[4,5-d]pyrimidin-3-yl)-3,4-dihydroxytetrahydrofuran-2-yl)methoxy)-2-oxoethyl)phosphonic acid] | > 1000 nM
O=P(O)(O)COC[C@H]1O[C@@H](n2ncc3c(Nc4ccccc4)nc(Cl)nc32)[C@H](O)[C@@H]1O [Example 75, ((((2R,3S,4R,5R)-5-(6-chloro-4-(phenylamino)-1H-pyrazolo[3,4-d]pyrimidin-1-yl)-3,4-dihydroxytetrahydrofuran-2-yl)methoxy)methyl)phosphonic acid] | ≤ 500 nM
O=P(O)(O)COC[C@H]1O[C@@H](n2ncc3c(NC[C@H]4CCOC4)nc(Cl)nc32)[C@H](O)[C@@H]1O [Example 45, ((((2R,3S,4R,5R)-5-(6-chloro-4-((((R)-tetrahydrofuran-3-yl)methyl)amino)-1H-pyrazolo[3,4-d]pyrimidin-1-yl)-3,4-dihydroxytetrahydrofuran-2-yl)methoxy)methyl)phosphonic acid] | ≤ 500 nM

The remaining lines, values ahead:

IC50 | Compound
> 1000 nM | O=P(O)(O)CS(=O)(=O)CC[C@H]1O[C@@H](n2ncc3c(NCC4CC4)nc(Cl)nc32)[C@H](O)[C@@H]1O [Example 88, (((2-((2R,3S,4R,5R)-5-(6-chloro-4-((cyclopropylmethy)amino)-1H-pyrazolo[3,4-d]pyrimidin-1-yl)-3,4-dihydroxytetrahydrofuran-2-yl)ethyl)sulfonyl)methyl)phosphonic acid]
≤ 500 nM | C[C@@H]1CCC[C@@H]1Nc1nc(Cl)nc2c1cnn2[C@@H]1O[C@H](CS(=O)(=O)CP(=O)(O)O)[C@@H](O)[C@H]1O [Example 135, (((((2S,3S,4R,5R)-5-(6-chloro-4-(((1S,2R)-2-methylcyclopentyl)amino)-1H-pyrazolo[3,4-d]pyrimidin-1-yl)-3,4-dihydroxytetrahydrofuran-2-yl)methyl)sulfonyl)methyl)phosphonic acid]
≤ 500 nM | O=P(O)(O)CS(=O)(=O)C[C@H]1O[C@@H](n2ncc3c(NCc4ccc(Cl)cc4)nc(Cl)nc32)[C@H](O)[C@@H]1O [Example 127, (((((2S,3S,4R,5R)-5-(6-chloro-4-((4-chlorobenzyl)amino)-1H-pyrazolo[3,4-d]pyrimidin-1-yl)-3,4-dihydroxytetrahydrofuran-2-yl)methyl)sulfonyl)methyl)phosphonic acid]
≤ 500 nM | C[C@H](Nc1nc(Cl)nc2c1nnn2[C@@H]1O[C@H](CS(=O)(=O)CP(=O)(O)O)[C@@H](O)[C@H]1O)c1ccc(F)cc1 [Example 114]
≤ 500 nM | Cn1ncc2cccc(CNc3nc(Cl)nc4c3cnn4[C@@H]3O[C@H](COCP(=O)(O)O)[C@@H](O)[C@H]3O)c21 [Example 48, ((((2R,3S,4R,5R)-5-(6-chloro-4-(((1-methyl-1H-indazol-7-yl)methyl)amino)-1H-pyrazolo[3,4-d]pyrimidin-1-yl)-3,4-dihydroxytetrahydrofuran-2-yl)methoxy)methyl)phosphonic acid]
≤ 500 nM | O=P(O)(O)CS(=O)(=O)C[C@H]1O[C@@H](n2nnc3c(N[C@H]4CCc5ccccc54)nc(Cl)nc32)[C@H](O)[C@@H]1O [Example 130, (((((2S,3S,4R,5R)-5-(5-chloro-7-(((S)-2,3-dihydro-1H-inden-1-yl)amino)-3H-[1,2,3]triazolo[4,5-d]pyrimidin-3-yl)-3,4-dihydroxytetrahydrofuran-2-yl)methyl)sulfonyl)methyl)phosphonic acid]
≤ 500 nM | O=P(O)(O)CS(=O)(=O)C[C@H]1O[C@@H](n2nnc3c(NCc4ccc(Cl)cc4)nc(Cl)nc32)[C@H](O)[C@@H]1O [Example 120, (((((2S,3S,4R,5R)-5-(5-chloro-7-((4-chlorobenzyl)amino)-3H[1,2,3]triazolo[4,5-d]pyrimidin-3-yl)-3,4-dihydroxytetrahydrofuran-2-yl)methyl)sulfonyl)methyl)phosphonic acid]
≤ 500 nM | O=P(O)(O)CS(=O)(=O)C[C@H]1O[C@@H](n2ncc3c(NCc4cccc(Cl)c4)nc(Cl)nc32)[C@H](O)[C@@H]1O [Example 61, (((((2S,3S,4R,5R)-5-(6-chloro-4-((3-chlorobenzyl)amino)-1H-pyrazolo[3,4-d]pyrimidin-1-yl)-3,4-dihydroxytetrahydrofuran-2-yl)methyl)sulfonyl)methyl)phosphonic acid]
≤ 500 nM | O=P(O)(O)COC[C@H]1O[C@@H](n2ncc3c(NCc4cccc(F)c4)nc(Cl)nc32)[C@H](O)[C@@H]1O [Example 29, ((((2R,3S,4R,5R)-5-(6-chloro-4-((3-fluorobenzyl)amino)-1H-pyrazolo[3,4-d]pyrimidin-1-yl)-3,4-dihydroxytetrahydrofuran-2-yl)methoxy)methyl)phosphonic acid]
≤ 500 nM | O=C(CP(=O)(O)O)OC[C@H]1O[C@@H](n2ncc3c(NCc4ccccc4Cl)nc(Cl)nc32)[C@H](O)[C@@H]1O [Example 1, (2-(((2R,3S,4R,5R)-5-(6-Chloro-4-((2-chlorobenzyl)amino)-1H-pyrazolo[3,4-d]pyrimidin-1-yl)-3,4-dihydroxytetrahydrofuran-2-yl)methoxy)-2-oxoethyl)phosphonic acid]
> 1000 nM | O=C(CP(=O)(O)O)NC[C@H]1O[C@@H](n2ncc3c(NCc4ccccc4Cl)nc(Cl)nc32)[C@H](O)[C@@H]1O [Example 2, (2-((((2R,3S,4R,5R)-5-(6-Chloro-4-((2-chlorobenzyl)amino)-1H-pyrazolo[3,4-d]pyrimidin-1-yl)-3,4-dihydroxytetrahydrofuran-2-yl)methyl)amino)-2-oxoethyl)phosphonic acid]
